Measured values taken from ChEMBL document CHEMBL1201862, “PubChem BioAssay data set” (2004).
Blank lines part the entries; values can stand above or below the compound they belong to. Active and inactive are the calls of the source.

Legend:
[1] = system: HEK293; assay: cells; type: functional, cell-based; details: Homo sapiens
[2] = target: T1, Nuclear receptor subfamily 0 group B member 1 (Homo sapiens, UniProt P51843); assay: Luminescence-based cell-based high throughput dose response assay for inhibitors of the orphan nuclear receptor subfamily 0, group B, member 1 (DAX1; NR0B1). [Related pubchem assays (depositor defined):AID504766, AID504790]; type: functional
T1 sequence (P51843 whole entry): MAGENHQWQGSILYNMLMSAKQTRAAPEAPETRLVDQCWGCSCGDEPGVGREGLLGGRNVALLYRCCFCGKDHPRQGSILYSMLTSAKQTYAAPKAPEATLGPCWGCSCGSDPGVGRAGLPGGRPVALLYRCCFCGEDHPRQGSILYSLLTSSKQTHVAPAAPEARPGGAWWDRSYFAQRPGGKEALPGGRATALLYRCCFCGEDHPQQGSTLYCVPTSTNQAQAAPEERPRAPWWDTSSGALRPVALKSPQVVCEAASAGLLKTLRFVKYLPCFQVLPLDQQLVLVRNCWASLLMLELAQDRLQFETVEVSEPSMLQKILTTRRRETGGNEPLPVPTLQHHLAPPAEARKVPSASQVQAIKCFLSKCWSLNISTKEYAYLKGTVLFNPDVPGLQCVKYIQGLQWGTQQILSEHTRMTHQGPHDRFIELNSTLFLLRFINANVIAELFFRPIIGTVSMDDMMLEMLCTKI

[3] = system: Vero; assay: Vero cell cytotoxicity, cytotoxicity control for flavivirus capping enzyme inhibitors (AID 588742); type: functional; details: Chlorocebus sabaeus
[4] = target: Cysteine protease ATG4B (Homo sapiens, UniProt Q9Y4P1); type: functional;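 further: Fluorescence-based dose-response confirmation assay measuring inhibition of ATG4B activity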
Sequence of Cysteine protease ATG4B (Q9Y4P1 whole entry): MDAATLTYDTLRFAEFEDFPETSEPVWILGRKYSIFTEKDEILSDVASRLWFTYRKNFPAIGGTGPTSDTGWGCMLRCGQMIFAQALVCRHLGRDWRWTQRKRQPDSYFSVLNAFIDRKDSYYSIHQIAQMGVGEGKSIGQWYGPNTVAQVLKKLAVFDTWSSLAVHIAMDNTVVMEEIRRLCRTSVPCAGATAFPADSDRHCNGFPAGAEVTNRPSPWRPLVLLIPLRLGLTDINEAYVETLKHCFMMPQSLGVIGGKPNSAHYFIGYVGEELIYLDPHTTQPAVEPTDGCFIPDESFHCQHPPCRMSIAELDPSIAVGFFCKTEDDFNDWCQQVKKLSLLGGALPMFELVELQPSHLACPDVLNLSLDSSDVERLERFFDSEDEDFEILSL

[5] = target: Phospholipase A2 (Homo sapiens, UniProt P04054); type: functional;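 further: confirmatory dose-response counterscreen on phospholipase A2, testing hits that came from an ultra-high-throughput screen for ATG4B inhibitors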
Sequence of Phospholipase A2 (P04054 whole entry): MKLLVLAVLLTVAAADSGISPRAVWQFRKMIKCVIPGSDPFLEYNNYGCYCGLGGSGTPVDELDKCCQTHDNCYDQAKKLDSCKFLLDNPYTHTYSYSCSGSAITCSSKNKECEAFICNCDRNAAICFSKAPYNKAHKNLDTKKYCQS

[6] = target: T2, Hexokinase HKDC1 (Homo sapiens, UniProt Q2TB90); assay: HKDC1 hexokinase inhibitors, SAR follow-up, biochemical, set 2 (AID 588355); type: functional
T2 sequence (Q2TB90 whole entry): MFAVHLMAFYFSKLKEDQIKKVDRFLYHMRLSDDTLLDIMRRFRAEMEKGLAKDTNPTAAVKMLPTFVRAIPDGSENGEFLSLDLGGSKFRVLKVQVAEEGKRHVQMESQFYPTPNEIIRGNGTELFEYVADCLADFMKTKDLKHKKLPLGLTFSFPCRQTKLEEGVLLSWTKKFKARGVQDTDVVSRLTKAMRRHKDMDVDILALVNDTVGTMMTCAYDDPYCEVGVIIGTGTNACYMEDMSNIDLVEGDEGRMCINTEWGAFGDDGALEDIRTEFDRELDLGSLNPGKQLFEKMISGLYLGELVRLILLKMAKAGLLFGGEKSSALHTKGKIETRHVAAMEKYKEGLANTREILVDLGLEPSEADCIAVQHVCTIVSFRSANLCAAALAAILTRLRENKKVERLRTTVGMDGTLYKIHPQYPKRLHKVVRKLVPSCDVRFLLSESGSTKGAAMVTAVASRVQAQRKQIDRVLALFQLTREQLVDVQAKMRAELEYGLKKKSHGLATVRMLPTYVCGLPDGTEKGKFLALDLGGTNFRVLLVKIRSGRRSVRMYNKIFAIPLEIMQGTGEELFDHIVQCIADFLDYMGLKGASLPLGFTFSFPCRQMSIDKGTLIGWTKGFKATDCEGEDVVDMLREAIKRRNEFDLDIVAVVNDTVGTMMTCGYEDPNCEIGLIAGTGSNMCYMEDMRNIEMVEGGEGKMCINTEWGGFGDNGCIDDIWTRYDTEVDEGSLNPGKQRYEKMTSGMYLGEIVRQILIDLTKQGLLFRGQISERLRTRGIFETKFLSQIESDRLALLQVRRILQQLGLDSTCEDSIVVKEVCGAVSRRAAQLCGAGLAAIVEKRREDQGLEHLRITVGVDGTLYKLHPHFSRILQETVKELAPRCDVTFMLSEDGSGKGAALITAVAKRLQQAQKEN

[7] = target: T3, Hexokinase-1 (Homo sapiens, UniProt P19367); assay: HK1 enzyme inhibition by HKDC1 hits, SAR follow-up, selectivity assay for HKDC1 inhibitor project, biochemical, set 2, resazurin fluorescence coupled readout (AID 588356); type: functional
T3 sequence (P19367 whole entry): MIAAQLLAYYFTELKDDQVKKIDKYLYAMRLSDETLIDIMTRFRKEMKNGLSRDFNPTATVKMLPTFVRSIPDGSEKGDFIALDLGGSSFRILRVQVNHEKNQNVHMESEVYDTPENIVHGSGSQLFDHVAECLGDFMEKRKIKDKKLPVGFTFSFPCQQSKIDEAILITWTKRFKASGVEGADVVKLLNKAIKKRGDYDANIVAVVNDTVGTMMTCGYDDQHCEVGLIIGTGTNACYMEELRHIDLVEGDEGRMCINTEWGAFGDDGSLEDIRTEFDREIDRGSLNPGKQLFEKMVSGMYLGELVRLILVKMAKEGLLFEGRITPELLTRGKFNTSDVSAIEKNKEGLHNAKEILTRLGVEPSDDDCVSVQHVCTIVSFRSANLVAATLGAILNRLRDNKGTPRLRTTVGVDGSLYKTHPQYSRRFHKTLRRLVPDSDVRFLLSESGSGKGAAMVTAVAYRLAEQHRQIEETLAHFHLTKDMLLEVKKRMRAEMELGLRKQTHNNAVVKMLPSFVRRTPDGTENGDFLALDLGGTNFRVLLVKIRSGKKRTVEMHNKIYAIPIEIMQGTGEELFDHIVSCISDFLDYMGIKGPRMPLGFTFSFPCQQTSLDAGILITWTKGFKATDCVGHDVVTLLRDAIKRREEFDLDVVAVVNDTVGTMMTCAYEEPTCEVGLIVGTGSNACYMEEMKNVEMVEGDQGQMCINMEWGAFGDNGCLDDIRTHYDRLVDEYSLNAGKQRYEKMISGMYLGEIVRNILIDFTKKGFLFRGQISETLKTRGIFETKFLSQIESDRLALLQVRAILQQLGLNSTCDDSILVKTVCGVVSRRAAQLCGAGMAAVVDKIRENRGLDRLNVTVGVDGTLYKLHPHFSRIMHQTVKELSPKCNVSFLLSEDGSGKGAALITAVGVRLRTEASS

[8] = target: Beta-2 adrenergic receptor (Homo sapiens, UniProt P07550); assay: beta2AR agonists driving receptor internalization, dose response, cell-based, FAP fluorogen, flow cytometry, cherry pick 1 (AID 588763); type: functional
Sequence of Beta-2 adrenergic receptor (P07550 whole entry, canonical isoform): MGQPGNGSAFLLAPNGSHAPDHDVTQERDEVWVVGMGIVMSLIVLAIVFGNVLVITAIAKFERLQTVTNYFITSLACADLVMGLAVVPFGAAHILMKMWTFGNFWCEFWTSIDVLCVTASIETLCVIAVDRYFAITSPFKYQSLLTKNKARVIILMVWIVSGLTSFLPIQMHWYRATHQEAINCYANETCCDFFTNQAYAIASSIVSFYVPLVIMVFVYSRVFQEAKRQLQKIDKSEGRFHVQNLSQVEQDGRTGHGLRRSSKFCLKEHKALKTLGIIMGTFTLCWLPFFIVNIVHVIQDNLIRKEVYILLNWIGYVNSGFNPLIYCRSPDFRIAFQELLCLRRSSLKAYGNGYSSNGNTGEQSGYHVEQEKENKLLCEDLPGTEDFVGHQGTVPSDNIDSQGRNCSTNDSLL

[9] = target: Casein kinase I isoform delta (Homo sapiens, UniProt P48730); type: functional;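 further: measured as one member (CSNK1D) of a kinome panel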
Sequence of Casein kinase I isoform delta (P48730 whole entry, canonical isoform): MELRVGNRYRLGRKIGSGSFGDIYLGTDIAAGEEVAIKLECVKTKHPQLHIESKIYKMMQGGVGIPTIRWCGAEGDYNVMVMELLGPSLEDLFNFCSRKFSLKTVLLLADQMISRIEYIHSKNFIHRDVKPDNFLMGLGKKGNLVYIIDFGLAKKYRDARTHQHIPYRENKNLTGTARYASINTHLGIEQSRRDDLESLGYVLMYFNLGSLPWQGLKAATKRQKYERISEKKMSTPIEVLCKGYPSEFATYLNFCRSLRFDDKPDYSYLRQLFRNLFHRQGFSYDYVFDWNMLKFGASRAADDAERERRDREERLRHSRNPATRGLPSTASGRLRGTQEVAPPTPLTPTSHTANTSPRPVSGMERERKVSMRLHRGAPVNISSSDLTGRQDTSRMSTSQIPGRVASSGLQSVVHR

[10] = target: Melanin-concentrating hormone receptor 1 (Homo sapiens, UniProt Q99705); assay: Late-stage fluorescence-based counterscreen for antagonists of the G-protein coupled receptor 7 (GPR7): cell-based dose response assay to identify antagonists of the melanin-concentrating hormone receptor 1 (MCHR1) Set 5.; type: functional
Sequence of Melanin-concentrating hormone receptor 1 (Q99705 whole entry): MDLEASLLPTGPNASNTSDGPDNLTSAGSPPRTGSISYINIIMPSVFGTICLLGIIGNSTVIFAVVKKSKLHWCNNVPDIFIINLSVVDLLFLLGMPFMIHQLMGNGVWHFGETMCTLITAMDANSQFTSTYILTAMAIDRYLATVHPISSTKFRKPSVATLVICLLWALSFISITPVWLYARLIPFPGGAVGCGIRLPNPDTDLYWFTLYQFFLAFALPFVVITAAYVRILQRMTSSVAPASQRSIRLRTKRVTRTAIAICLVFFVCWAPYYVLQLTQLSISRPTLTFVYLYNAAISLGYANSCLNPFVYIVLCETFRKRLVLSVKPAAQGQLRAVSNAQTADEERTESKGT

[11] = target: Neuropeptides B/W receptor type 1 (Homo sapiens, UniProt P48145); assay: GPR7 antagonist potency, late-stage follow-up, cell-based, fluorescence, dose response, set 5 (AID 588566); type: functional
Sequence of Neuropeptides B/W receptor type 1 (P48145 whole entry): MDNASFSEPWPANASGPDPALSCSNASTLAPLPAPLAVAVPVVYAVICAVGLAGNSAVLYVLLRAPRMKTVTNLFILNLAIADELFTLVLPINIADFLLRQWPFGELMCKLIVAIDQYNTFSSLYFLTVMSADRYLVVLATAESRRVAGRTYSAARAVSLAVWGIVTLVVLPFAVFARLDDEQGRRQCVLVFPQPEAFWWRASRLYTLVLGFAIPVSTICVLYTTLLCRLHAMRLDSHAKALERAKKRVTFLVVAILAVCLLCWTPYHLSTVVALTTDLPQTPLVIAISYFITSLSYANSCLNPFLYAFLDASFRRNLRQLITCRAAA

[12] = target: T4, Apoptotic protease-activating factor 1 (Homo sapiens, UniProt O14727); assay: SAR analysis of small molecule Activators of Apaf-1 in a Fluorescent assay.; type: functional; details: read-out: EC50_Mean;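 further: caspase-3 cleavage of fluorogenic Rh110 DEVD substrate downstream of apoptosome activation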
T4 sequence (O14727 whole entry): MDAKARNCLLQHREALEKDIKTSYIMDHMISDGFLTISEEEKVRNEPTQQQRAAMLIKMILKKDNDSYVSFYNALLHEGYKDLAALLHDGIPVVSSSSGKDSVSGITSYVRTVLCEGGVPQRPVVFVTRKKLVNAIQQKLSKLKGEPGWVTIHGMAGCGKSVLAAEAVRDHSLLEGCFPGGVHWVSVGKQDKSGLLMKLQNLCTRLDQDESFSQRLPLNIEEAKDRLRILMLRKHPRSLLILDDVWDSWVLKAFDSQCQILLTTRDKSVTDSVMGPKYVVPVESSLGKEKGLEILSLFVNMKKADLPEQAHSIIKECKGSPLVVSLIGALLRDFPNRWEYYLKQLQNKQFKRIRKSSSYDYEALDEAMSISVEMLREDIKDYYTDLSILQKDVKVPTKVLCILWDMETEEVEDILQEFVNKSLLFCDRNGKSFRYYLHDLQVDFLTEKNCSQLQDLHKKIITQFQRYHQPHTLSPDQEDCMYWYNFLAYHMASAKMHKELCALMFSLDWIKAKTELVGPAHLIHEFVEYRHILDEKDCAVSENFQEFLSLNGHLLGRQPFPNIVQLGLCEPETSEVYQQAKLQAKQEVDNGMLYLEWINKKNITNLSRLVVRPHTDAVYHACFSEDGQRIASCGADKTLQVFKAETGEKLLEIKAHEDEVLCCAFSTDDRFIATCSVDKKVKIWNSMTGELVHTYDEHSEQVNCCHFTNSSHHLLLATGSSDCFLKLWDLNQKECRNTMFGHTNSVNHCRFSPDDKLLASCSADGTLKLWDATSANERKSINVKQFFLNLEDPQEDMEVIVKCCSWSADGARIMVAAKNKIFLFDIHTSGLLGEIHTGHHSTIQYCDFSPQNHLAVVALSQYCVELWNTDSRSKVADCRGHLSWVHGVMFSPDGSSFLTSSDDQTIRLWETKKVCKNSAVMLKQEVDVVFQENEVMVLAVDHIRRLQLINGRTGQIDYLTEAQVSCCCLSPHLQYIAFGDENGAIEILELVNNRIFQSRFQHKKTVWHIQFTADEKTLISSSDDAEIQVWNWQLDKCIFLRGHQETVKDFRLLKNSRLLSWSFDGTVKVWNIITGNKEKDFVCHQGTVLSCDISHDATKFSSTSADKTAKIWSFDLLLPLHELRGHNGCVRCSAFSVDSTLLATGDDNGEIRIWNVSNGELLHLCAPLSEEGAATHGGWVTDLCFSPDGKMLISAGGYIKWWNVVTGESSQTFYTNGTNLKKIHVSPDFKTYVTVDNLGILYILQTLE

[13] = growth suppression of beta-catenin-knockout colon cells, dose response, cell-based, HCT116, human colon tumor (AID 1045); type: functional;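 further: HCT116 colon tumor cells with beta catenin knocked out; cells exposed to compound for 60 hours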
[14] = growth suppression of PTEN-null colon cells, dose response, cell-based, HCT116 PTEN knockout (AID 1047); type: functional;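 further: HCT116 colon tumor cells with PTEN knocked out; cells exposed to compound for 60 hours before readout; potency for loss of cell viability measured by luminescence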
[15] = target: Mitogen-activated protein kinase 13 (Homo sapiens, UniProt O15264); type: functional
Sequence of Mitogen-activated protein kinase 13 (O15264 whole entry): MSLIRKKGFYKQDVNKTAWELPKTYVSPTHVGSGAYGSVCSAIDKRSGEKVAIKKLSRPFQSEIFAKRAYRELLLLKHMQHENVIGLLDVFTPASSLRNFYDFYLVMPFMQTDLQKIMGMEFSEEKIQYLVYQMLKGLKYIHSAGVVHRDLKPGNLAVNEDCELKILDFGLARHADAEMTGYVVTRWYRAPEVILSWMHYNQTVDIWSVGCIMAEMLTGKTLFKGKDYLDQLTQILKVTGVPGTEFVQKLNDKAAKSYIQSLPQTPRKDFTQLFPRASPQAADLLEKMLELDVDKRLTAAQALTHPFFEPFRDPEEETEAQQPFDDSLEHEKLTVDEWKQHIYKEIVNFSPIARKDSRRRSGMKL

[16] = target: Voltage-gated inwardly rectifying potassium channel KCNH2 (Homo sapiens, UniProt Q12809); details: Potency;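 further: confirmatory quantitative high-throughput screen measuring inhibition of hERG channel activity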
Sequence of Voltage-gated inwardly rectifying potassium channel KCNH2 (Q12809 whole entry): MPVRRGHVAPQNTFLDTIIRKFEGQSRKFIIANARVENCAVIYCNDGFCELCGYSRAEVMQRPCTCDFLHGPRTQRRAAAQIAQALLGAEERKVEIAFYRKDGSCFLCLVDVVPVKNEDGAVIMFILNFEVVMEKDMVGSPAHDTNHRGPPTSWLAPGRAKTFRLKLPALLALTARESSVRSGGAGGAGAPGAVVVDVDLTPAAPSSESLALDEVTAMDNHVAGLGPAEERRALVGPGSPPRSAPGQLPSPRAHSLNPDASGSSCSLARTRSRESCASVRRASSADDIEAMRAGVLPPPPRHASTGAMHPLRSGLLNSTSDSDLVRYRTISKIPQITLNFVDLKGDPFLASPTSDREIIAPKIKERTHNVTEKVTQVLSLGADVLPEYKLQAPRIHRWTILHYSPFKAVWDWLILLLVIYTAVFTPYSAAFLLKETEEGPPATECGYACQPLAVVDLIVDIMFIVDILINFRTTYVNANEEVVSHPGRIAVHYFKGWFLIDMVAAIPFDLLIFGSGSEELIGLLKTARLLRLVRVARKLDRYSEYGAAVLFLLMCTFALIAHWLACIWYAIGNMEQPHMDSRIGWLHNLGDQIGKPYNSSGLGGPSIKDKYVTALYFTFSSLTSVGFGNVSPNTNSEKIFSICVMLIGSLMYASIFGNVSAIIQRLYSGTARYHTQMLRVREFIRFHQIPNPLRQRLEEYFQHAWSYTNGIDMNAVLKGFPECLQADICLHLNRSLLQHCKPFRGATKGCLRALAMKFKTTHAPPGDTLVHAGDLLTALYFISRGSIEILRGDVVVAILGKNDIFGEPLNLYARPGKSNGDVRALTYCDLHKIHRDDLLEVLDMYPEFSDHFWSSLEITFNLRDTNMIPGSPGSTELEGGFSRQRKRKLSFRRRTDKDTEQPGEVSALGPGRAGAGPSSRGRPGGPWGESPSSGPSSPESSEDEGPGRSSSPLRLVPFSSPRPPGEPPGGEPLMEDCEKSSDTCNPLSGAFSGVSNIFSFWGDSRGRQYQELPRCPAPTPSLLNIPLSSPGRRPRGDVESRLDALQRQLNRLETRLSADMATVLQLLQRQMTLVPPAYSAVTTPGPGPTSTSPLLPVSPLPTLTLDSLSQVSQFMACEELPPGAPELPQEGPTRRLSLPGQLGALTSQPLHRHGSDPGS

Compound: CC(C)(C)c1ccc(-c2noc(-c3ccno3)n2)cc1
- IC50 [1]: > 67.5 µM (inactive)
- IC50 [2]: > 67.5 µM (inactive)

Compound: Cc1nc2ncccn2c1-c1csc(NCc2ccco2)n1
- CC50 [3]: > 40 µM (active)

- IC50 [4]: 13.3 µM (active)
- IC50 [5]: 8.83 µM (active)
Compound: Cc1ccc(-c2cc(C(=O)N3CCc4ccccc4C3)no2)cc1

- IC50 [6]: > 80 µM (inactive)
- IC50 [7]: > 80 µM (inactive)
Compound: CC(=O)NC1C(=O)N(Cc2ccccc2)c2ccc(Br)cc21 (stereo not given)

- EC50 [8]: 0.0444 µM (active)
Compound: O=C(CN1C(=O)CCC1=O)Nc1nc(-c2nc3ccccc3s2)cs1

- EC50 [8]: 6.08 µM (active)
Compound: CN(Cc1ccccc1F)c1nc(-c2cccnc2)nc2ccccc12

- Ki [9]: 3.16 µM (active)
Compound: CC1(N2CCC(c3ccccc3)CC2)CCN(C(=O)CNc2ncnc3cc(Cl)c(Cl)cc23)C1 (stereo not given)

- IC50 [10]: > 20 µM (inactive)
- IC50 [11]: > 20 µM (inactive)
Compound: CCOC(=O)c1nn(-c2ccc(C(C)C)cc2)c(=O)c(Oc2ccc(OC)cc2)c1Cl

- EC50 [12]: > 100 µM (inactive)
Compound: COc1ccc(C(=O)NC(CCc2ccccc2)CC(=O)O)cc1 (stereo not given)

- IC50 [10]: > 20 µM (inactive)
- IC50 [11]: > 20 µM (inactive)
Compound: O=C(C1CCCCN1C1c2ccccc2-c2ccccc21)N1CCN(c2ccc([N+](=O)[O-])cc2)CC1 (stereo not given)

Compound: Cc1[nH]n(-c2ccccc2)c(=O)c1N=Nc1nccs1
- CC50 [3]: > 40 µM (active)
- EC50 [13]: 4.29 µM (active)
- EC50 [14]: 5.42 µM (active)

- Ki [15]: > 7.94 µM (inactive)
Compound: N#Cc1ncc2nc1OCCCCCOc1cc(OCCCO)c(Cl)cc1NC(=O)N2

Compound: CCOP(=S)(OCC)Oc1nc(Cl)c(Cl)cc1Cl [CHLORPYRIFOS]
- AC50 [16]: 50.1 µM (inconclusive)
